Here are results for 17 compounds from patent US8637498B2, “Oxopiperazine-azetidine amides and oxodiazepine-azetidine amides as monoacylglycerol lipase inhibitors” (Janssen Pharmaceutica, NV, priority 2010, dated 2014).

As usually defined, the IC50 is the concentration at which inhibition is half-maximal.

In experiment [1] the target is T1, purified wild type MGL (wt-MGLL 6H-11-313) (Homo sapiens, UniProt Q99685).
T1 construct: wt-MGLL 6H-11-313; 6H (hexahistidine) (N)
T1 sequence (Q99685 1-303): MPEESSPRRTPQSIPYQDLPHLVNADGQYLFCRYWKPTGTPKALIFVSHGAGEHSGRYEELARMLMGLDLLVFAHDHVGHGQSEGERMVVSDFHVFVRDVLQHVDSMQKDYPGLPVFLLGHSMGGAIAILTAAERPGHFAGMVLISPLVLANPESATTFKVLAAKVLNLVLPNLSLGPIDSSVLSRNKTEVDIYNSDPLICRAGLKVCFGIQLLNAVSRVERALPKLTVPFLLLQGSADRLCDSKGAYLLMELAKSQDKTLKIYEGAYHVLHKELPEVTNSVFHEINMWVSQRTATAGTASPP
Put plainly: MGL Enzyme Activity Assay (wild type MGL, 4MU-B substrate). Conditions: wild type MGL 5 nM, 4MU-B 10 μM, 37° C.; read-out: MGL wild type inh IC50. The format is biochemical. As to the method: All rate-based assays were performed in black 384-well polypropylene PCR microplates (Abgene) in a total volume of 30 μL. Substrate 4-methylumbelliferyl butyrate (4MU-B; Sigma) and either purified mutant MGL (mut-MGLL 11-313 L179S L186S) or purified wild type MGL (wt-MGLL 6H-11-313) were diluted separately into 20 mM PIPES buffer (pH=7.0), containing 150 mM NaCl and 0.001% Tween 20. Compounds of Formula (Ia) and (Ib) were pre-dispensed (50 nL) into the assay plate using a Cartesian Hummingbird prior to adding 4MU-B (25 μL of 1.2× solution to a final concentration of 10 μM) followed by enzyme (5 μL of a 6× solution to a final concentration of 5 nM) to initiate the reaction. Final compound concentrations ranged from 17 to 0.0003 μM. The fluorescence change due to 4MU-B cleavage was monitored with excitation and emission wavelengths of 335 and 440 nm, respectively, and a bandwidth of 10 nm (Safire^2, Tecan) at 37° C. for 5 min.
The IC50 values for compounds of Formula (Ia) or (Ib) were determined using Excel from a fit of the equation to the concentration-response plot of the fractional activity as a function of inhibitor concentration.

The target of a further experiment is T2, mutant MGL (Homo sapiens, UniProt Q99685, L169S/L176S).
T2 construct: mut-MGLL 11-313 L179S L186S
T2 sequence (Q99685 1-303 L169S/L176S): T1 sequence (Q99685 1-303) with L169S, L176S
Put plainly: MGL ThermoFluor Assay - Mutant. The format is binding. As to the method: The ThermoFluor (TF) assay is a 384-well plate-based binding assay that measures thermal stability of proteins^1,2. The experiments were carried out using instruments available from Johnson & Johnson Pharmaceutical Research & Development, LLC. TF dye used in all experiments was 1,8-ANS (Invitrogen: A-47). Final TF assay conditions used for MGL studies were 0.07 mg/ml of mutant MGL, 100 μM ANS, 200 mM NaCl, 0.001% Tween-20 in 50 mM PIPES (pH=7.0).
Screening compound plates contained 100% DMSO compound solutions at a single concentration. For follow-up concentration-response studies, compounds were arranged in a pre-dispensed plate (Greiner Bio-one: 781280), wherein compounds were serially diluted in 100% DMSO across 11 columns within a series. Columns 12 and 24 were used as DMSO reference and contained no compound. For both single and multiple compound concentration-repsonse experiments, the compound aliquots (46 nL) were robotically predispensed directly into 384-well black assay plates (Abgene: TF-0384/k) using the Hummingbird liquid handler. Following compound dispension, protein and dye solutions were added to achieve the final assay volume of 3 μL. The assay solutions were overlayed with 1 μL of silicone oil (Fluka, type DC 200: 85411) to prevent evaporation.
Bar-coded assay plates were robotically loaded onto a thermostatically controlled PCR-type thermal block and then heated from 40 to 90° C. degrees at a ramp-rate of 1° C./min for all experiments. Fluorescence was measured by continuous illumination with UV light (Hamamatsu LC6), supplied via fiber optics and filtered through a band-pass filter (380-400 nm; >6 OD cutoff). Fluorescence emission of the entire 384-well plate was detected by measuring light intensity using a CCD camera (Sensys, Roper Scientific) filtered to detect 500±25 nm, resulting in simultaneous and independent readings of all 384 wells. A single image with 20-sec exposure time was collected at each temperature, and the sum of the pixel intensity in a given area of the assay plate was recorded vs temperature and fit to standard equations to yield the Tm^1. • 1. Pantoliano, M. W., Petrella, E. C., Kwasnoski, J. D., Lobanov, V. S., Myslik, J., Graf, E., Carver, T., Asel, E., Springer, B. A., Lane, P., and Salemme, F. R. (2001) J Biomol Screen 6, 429-40. • 2. Matulis, D., Kranz, J. K., Salemme, F. R., and Todd, M. J. (2005) Biochemistry 44, 5258-66.
The Kd values for compounds of Formula (Ia) and (Ib) were determined from a fit of the equation to the concentration-response plot of the fractional activity as a function of Tm. For some experiments, quantitative NMR spectroscopy (qNMR) was used to measure concentration of the initial 100% DMSO compound solutions and, using the same fitting method, qKd values were determined.
On the technique in general: In DSF a fluorescence change marks the thermal transition of the protein.

[2] abbreviates: mutant MGL 0.07 mg/ml, 1,8-ANS dye, read-out: MGL mutant ThermoFluor Kd.
Where [3] appears, read: mutant MGL, compound concentration measured by qNMR, read-out: MGL mutant ThermoFluor qKd (using qNMR conc.).

Numbering of substitutions follows the chain as printed. Read-outs that look alike come from different tables or passages of the source. Where only a bound is given, the exact number is not on record here.

With `O=C(c1ccc2c(ccn2-c2ccc(C(F)(F)F)cc2)c1)N1CC(N2CCN(c3ccccc3)C(=O)C2)C1` [Cpd 13, 1-Phenyl-4-[1-({1-[4-(trifluoromethyl)phenyl]-1H-indol-5-yl}carbonyl)azetidin-3-yl]piperazin-2-one], the IC50 in experiment [1] was determined as 0.908 µM. At mutant MGL (setting [2]), the Kd is 1.35 µM.

Consider `O=C(c1ccc2c(ccn2-c2ccc(F)c(F)c2)c1)N1CC(N2CCN(c3ccccc3)C(=O)C2)C1` [Cpd 15, 4-(1-{[1-(3,4-Difluorophenyl)-1H-indol-5-yl]carbonyl}azetidin-3-yl)-1-phenylpiperazin-2-one], for which the IC50 in experiment [1] amounted to 0.304 µM. At mutant MGL (setting [2]), the Kd worked out at 1.97 µM.

Regarding `O=C(c1sc2cc(C(F)(F)F)ccc2c1Cl)N1CC(N2CCC(=O)N(c3ncccn3)CC2)C1` [Cpd 17, 1-(1-{[3-Chloro-6-(trifluoromethyl)-1-benzothiophen-2-yl]carbonyl}azetidin-3-yl)-4-pyrimidin-2-yl-1,4-diazepan-5-one], the IC50 in experiment [1] was 0.0554 µM. Further, at mutant MGL (setting [3]), the Kd was found to be 0.0525 µM.

As to `O=C(c1cc2ccc(C(F)(F)F)cc2s1)N1CC(N2CCN(c3ncccn3)CC2=O)C1` [Cpd 23, 4-Pyrimidin-2-yl-1-(1-{[6-(trifluoromethyl)-1-benzothiophen-2-yl]carbonyl}azetidin-3-yl)piperazin-2-one], the IC50 in experiment [1] is 0.568 µM. The Kd at mutant MGL (setting [2]) turned out to be 0.714 µM.

For the compound `O=C(c1ccc2nc(-c3ccccc3)oc2c1)N1CC(N2CCN(c3nccs3)C(=O)C2)C1` [Cpd 16, 4-{1-[(2-Phenyl-1,3-benzoxazol-6-yl)carbonyl]azetidin-3-yl}-1-(1,3-thiazol-2-yl)piperazin-2-one], the IC50 in experiment [1] came to 0.0677 µM. At mutant MGL (setting [3]), the Kd worked out at 1.38 µM.

In the case of `O=C(c1sc2cc(C(F)(F)F)ccc2c1Cl)N1CC(N2CCC(=O)N(c3nccs3)CC2)C1` [Cpd 19, 1-(1-{[3-Chloro-6-(trifluoromethyl)-1-benzothiophen-2-yl]carbonyl}azetidin-3-yl)-4-(1,3-thiazol-2-yl)-1,4-diazepan-5-one], the IC50 in experiment [1] was less than 0.005 µM. Moreover, the Kd on mutant MGL (setting [3]) worked out at 0.0008 µM.

On to `O=C(c1sc2cc(C(F)(F)F)ccc2c1Cl)N1CC(N2CCN(c3nccs3)C(=O)C2)C1` [Cpd 11, 4-(1-{[3-Chloro-6-(trifluoromethyl)-1-benzothiophen-2-yl]carbonyl}azetidin-3-yl)-1-(1,3-thiazol-2-yl)piperazin-2-one], for which the IC50 in experiment [1] is less than 0.005 µM. Further, at mutant MGL (setting [2]), the Kd amounted to 0.0643 µM.

Regarding `O=C(c1ccc2nc(-c3ccccc3)sc2c1)N1CC(N2CCN(c3nccs3)C(=O)C2)C1` [Cpd 12, 4-{1-[(2-Phenyl-1,3-benzothiazol-6-yl)carbonyl]azetidin-3-yl}-1-(1,3-thiazol-2-yl)piperazin-2-one], the IC50 in experiment [1] is 0.0986 µM. For the same compound, the Kd at mutant MGL (setting [2]) amounted to 0.994 µM.

With `O=C(c1ccc2nc(-c3ccccc3)oc2c1)N1CC(N2CCC(=O)N(c3nccs3)CC2)C1` [Cpd 22, 1-{1-[(2-Phenyl-1,3-benzoxazol-6-yl)carbonyl]azetidin-3-yl}-4-(1,3-thiazol-2-yl)-1,4-diazepan-5-one], the IC50 in experiment [1] is less than 0.005 µM. Also, on mutant MGL (setting [3]), the Kd was determined as 0.0025 µM.

`O=C(c1ccc2c(ccn2-c2ccc(F)cc2)c1)N1CC(N2CCC(=O)N(c3nccs3)CC2)C1` [Cpd 21, 1-(1-{[1-(4-Fluorophenyl)-1H-indol-5-yl]carbonyl}azetidin-3-yl)-4-(1,3-thiazol-2-yl)-1,4-diazepan-5-one]: in experiment [1], the IC50 was less than 0.005 µM. The Kd at mutant MGL (setting [3]) came to 0.001 µM.

As to `O=C(c1sc2cc(C(F)(F)F)ccc2c1Cl)N1CC(N2CCN(c3ncccn3)C(=O)C2)C1` [Cpd 8, 4-(1-{[3-Chloro-6-(trifluoromethyl)-1-benzothiophen-2-yl]carbonyl}azetidin-3-yl)-1-pyrimidin-2-ylpiperazin-2-one], the concentration for half-maximal inhibition (IC50) in experiment [1] stood at 0.124 µM. Further, the Kd on mutant MGL (setting [3]) came out at 0.165 µM.

As for `O=C(c1ccc2c(ccn2-c2ccc(F)cc2)c1)N1CC(N2CCC(=O)N(c3ncccn3)CC2)C1` [Cpd 20, 1-(1-{[1-(4-Fluorophenyl)-1H-indol-5-yl]carbonyl}azetidin-3-yl)-4-pyrimidin-2-yl-1,4-diazepan-5-one], in experiment [1], the IC50 turned out to be 0.248 µM. The Kd on mutant MGL (setting [3]) was determined as 0.282 µM.

For the compound `O=C(c1ccc2nc(-c3ccccc3)sc2c1)N1CC(N2CCN(c3ncccn3)C(=O)C2)C1` [Cpd 10, 4-{1-[(2-Phenyl-1,3-benzothiazol-6-yl)carbonyl]azetidin-3-yl}-1-pyrimidin-2-ylpiperazin-2-one], the IC50 in experiment [1] was determined as 3.64 µM. Also, the Kd at mutant MGL (setting [3]) turned out to be 10.6 µM.

As to `O=C(c1ccc2c(ccn2-c2ccc(F)cc2)c1)N1CC(N2CCN(c3ncccn3)C(=O)C2)C1` [Cpd 4, 4-(1-{[1-(4-Fluorophenyl)-1H-indol-5-yl]carbonyl}azetidin-3-yl)-1-pyrimidin-2-ylpiperazin-2-one], the IC50 in experiment [1] was 0.134 µM. Further, the Kd at mutant MGL (setting [3]) is 0.943 µM.

With `O=C(c1ccc(-c2ccccc2)cc1)N1CC(N2CCN(c3ncccn3)C(=O)C2)C1` [Cpd 9, 4-[1-(Biphenyl-4-ylcarbonyl)azetidin-3-yl]-1-pyrimidin-2-ylpiperazin-2-one], in experiment [1], the IC50 is 7.85 µM. On mutant MGL (setting [3]), the Kd worked out at 5.66 µM.

Regarding `O=C(c1ccc(-c2ccccc2)cc1)N1CC(N2CCN(c3nccs3)C(=O)C2)C1` [Cpd 18, 4-[1-(Biphenyl-4-ylcarbonyl)azetidin-3-yl]-1-(1,3-thiazol-2-yl)piperazin-2-one], in experiment [1], the IC50 amounted to 1.66 µM. Moreover, the Kd at mutant MGL (setting [3]) is 1.37 µM.

As for `O=C(c1sc2cc(C(F)(F)F)ccc2c1Cl)N1CC(N2CCN(c3ccccc3)C(=O)C2)C1` [Cpd 14, 4-(1-{[3-Chloro-6-(trifluoromethyl)-1-benzothiophen-2-yl]carbonyl}azetidin-3-yl)-1-phenylpiperazin-2-one], the IC50 in experiment [1] worked out at 0.225 µM. Further, the Kd on mutant MGL (setting [2]) amounted to 0.495 µM.
